Peptide text beside a SMILES is read from it. * marks the point of attachment. Cbz = O=C(OCc1ccccc1)*
Row | SMILES | logP
1 | COc1ccc(-c2nc3ccccc3[nH]2)c(OC)c1 | 2.59
2 | O=S(=O)(NO)c1ccccc1 | 0.48
3 | N#CCCN(CCC#N)/N=N/c1nc[nH]c1C(N)=O | -0.76
4 | CCCc1ccc(NC(C)=O)cc1 | 2.75
5 | CCOc1ccccc1NC(C)=O | 1.49
6 | CCCCOC(=O)c1cccc(C(=O)OCCCC)c1 | 4.26
7 | COc1ncccn1 | 0.23
8 | Cc1cccc(C)c1NC(=O)c1cccc(CN2CCOCC2)c1 | 2.14
9 | O=NN1CCCCC1=O | -1.05
10 | O=NN(CCCl)C(=O)NC1(C(=O)O)CCCC1 | 2.01
11 | CC1CCCN(N=O)C1=O (centres undefined) | -0.66
12 | O=C(O)c1ccccc1-c1ccccc1C(=O)O | 2.07
13 | O=S1(=O)NC(C2=CCCC2)=Nc2ccccc21 | 1.69
14 | Cn1cnc2ccccc2c1=O | 0.69
15 | CN(C)/N=N/c1ccccc1C(=O)NCC#N | 1.79
16 | CCOC(=O)c1cncn1C(C)c1ccccc1 (centres undefined) | 3.05
17 | O=C1c2ccccc2C(=O)C1(O)O | 0.67
18 | CCOCCOC(=O)C(C#N)=C(NCc1ccc(Cl)cc1)C(C)C | 4.05
19 | Cc1[nH]c(=O)[nH]c(=O)c1N(CCF)CCCl | 0.85
20 | FC(F)(F)CN(CC(F)(F)F)c1ccc(Br)cc1 | 4.7
21 | COc1cc(C=O)ccc1OCCOC(=O)c1ccccc1Cl | 3.21
22 | COc1cc(Cc2cnc(N)nc2N)cc(OC)c1N(C)C | 1.51
23 | Cc1nnc(SCc2ccccc2)s1 | 2.35
24 | O=C([O-])c1cc2ccccc2cc1O.[Na+] | 0.17

Row | SMILES | logP
25 | CCCCCCCCCCCCCCCC(=O)OCC1OC(n2ccc(N)nc2=O)C(O)C1O (centres undefined) | 5.03
26 | CC(=O)Nc1ccc2c(c1)S(=O)(=O)c1ccccc1C2=O | 2.35
27 | CC(=O)OC1OC(C)C(OC(C)=O)C(OC(C)=O)C1NC(=O)N(CCCl)N=O (centres undefined) | 1.32
28 | CCOc1cc(Cc2cnc(N)nc2N)cc(OCC)c1 | 2.52
29 | CC(=O)n1ccnc1 | -0.34
30 | CN(C)CCC1CN(C)C(=S)c2cccnc2O1 (centres undefined) | 1.08
31 | CCOC(=O)CC(=O)C=Cc1ccccc1C | 2.66
32 | CCC1OC(=O)C(C)C(OC2CC(C)(OC)C(O)C(C)O2)C(C)C(OC2OC(C)CC(N(C)C)C2O)C(C)(O)CC(C)C(=O)C(C)C(OC(C)=O)C1C (centres undefined) | 3.32
33 | CC(=O)Nc1cccc(C#N)c1 | 1.2
34 | CC(=O)Nc1ccc(C(F)(F)F)cc1 | 2.52
35 | Cc1c(N2CCCC2)c(=O)n(-c2ccccc2)c(=O)n1C | 2.26
36 | CCCC1CC(C(=O)NC(C(C)O)C2OC(SC)C(O)C(O)C2O)N(CC)C1 (centres undefined) | 1.02
37 | O=C(CCc1ccccc1)Nc1ccc(Cl)c(Cl)c1 | 4.85
38 | CN(C(=O)CCSC#N)c1ccc(S(=O)(=O)N(C)C)cc1 | 0.84
39 | O=CC(CO)OC(C=O)n1cnc2c(O)ncnc21 (centres undefined) | -2.11
40 | COc1cccc2c1C(=O)c1c(O)c3c(c(O)c1C2=O)CC(O)(C(=O)CO)CC3O (centres undefined) | 2.74
41 | COc1cccc(OC)n1 | 2.3
42 | O=C(CN(C(=O)CCl)c1ccccc1)Nc1ccccc1 | 2.32
43 | Nc1ccc(S(=O)(=O)[O-])c2ccccc12.[Na+] | -2.34
44 | O=NN(CCCl)C(=O)NC1CCC(NC(=O)N(CCCl)N=O)CC1 (centres undefined) | 2.74
45 | CN(C(=O)CCC#N)c1ccc(S(=O)(=O)N(C)C)cc1 | -0.17
46 | O=S(=O)(NS(=O)(=O)c1ccccc1)c1ccccc1 | 0.52
47 | c1ccn2nnnc2c1 | -0.09
48 | CC(=O)OC1COC(NC(=O)N(CCl)N=O)C(OC(C)=O)C1OC(C)=O (centres undefined) | 1.13

Row | SMILES | logP
49 | CCCCCCCCCCCCN.Cl | 1.85
50 | O=C(O)c1ccc[nH]1 | 0.85
51 | CC1(C)N=C(N)N=C(N)N1c1cccc([N+](=O)[O-])c1 | 0.06
52 | CN(CCO)C1=C(N2CC2)C(=O)C(N(C)CCO)=C(N2CC2)C1=O | -0.37
53 | CCOC(=O)CC(=O)C=Cc1ccc(C)cc1 | 2.63
54 | COc1cccc(OC)c1OC | 1.53
55 | C=CCN(C)N=Nc1ccc(C(N)=O)cc1 | 2.09
56 | CCOC(=O)CON=Cc1ccc(OCCOC(=O)c2cc(OC)c(OC)c(OC)c2)c(OC)c1 | 3.26
57 | c1cc2n(n1)CCN2 | -0.25
58 | CN(C(=O)CCC(N)=O)c1ccc(S(=O)(=O)N(C)C)cc1 | -0.56
59 | CN(C)c1ccc(C(=C2C=CC(=[N+](C)C)C=C2)c2ccc(N(C)C)cc2)cc1.[Cl-] | 0.96
60 | CSc1ccc(C=NN=C(N)NN)cc1 | 1.35
61 | Cc1c(N(C)C)c(=O)n(C)c(=O)n1C | 0.99
62 | CCNCC(F)(F)F | 0.74
63 | O=C(O)c1ccco1 | 0.64
64 | C[N+](C)(C)Cc1cccc(C(F)(F)F)c1.[Br-] | -1.35
65 | CCC(=O)OCCOc1ccc(C=NO)cc1OC | 1.52
66 | O=NN(CCCl)C(=O)Nc1ccc(Cl)cc1 | 3.16
67 | Nc1nnc(N)[nH]1 | -1.61
68 | NCC(CC(=O)O)c1ccc(Cl)cc1 (centres undefined) | -0.96
69 | CSc1nccc(=O)[nH]1 | 0.22
70 | Cc1oc2cc(OCC#N)ccc2c(=O)c1C | 1.96
71 | O=[N+]([O-])c1ccc(OCCn2ccnn2)cc1 | 1.19
72 | O=C(C=Cc1ccc2c(c1)OCO2)N1CCCCC1 | 2.82

Row | SMILES | logP
73 | O=[N+]([O-])c1ccc(C(F)(F)F)cc1 | 2.55
74 | CS(=O)(=O)OCCCNCCCOS(C)(=O)=O | -1.71
75 | CC1(C)OCCO1 | 0.46
76 | CCCC1CNC(C(=O)NC(C(C)O)C2OC(SC)C(O)C(O)C2O)C1 (centres undefined) | 0.04
77 | COc1cc(C=NO)ccc1OCCOC(=O)c1ccc(Cl)cc1 | 3.92
78 | COc1ccc(-c2nc3ccncc3[nH]2)c(OC)c1 | 2.56
79 | Cn1c(C=O)cnc1[N+](=O)[O-] | -0.1
80 | O=C(CCl)Nc1ccc(Cl)c(Cl)c1 | 3.29
81 | N[C@@H](CSC(c1ccccc1)(c1ccccc1)c1ccccc1)C(=O)O | 2.06
82 | CCCCOc1ccnc(C=CC2=CC([N+](=O)[O-])O2)n1 (centres undefined) | 2.04
83 | O=C(Nc1ccc(Cl)c(Cl)c1)C(F)(F)F | 3.9
84 | CC(C)C(NC(=O)OCc1ccccc1)C(=O)NC(Cc1ccc(O)cc1)C(=O)O (stereo not drawn) (Cbz-Val-Tyr-OH; configuration not given here) | 2.43
85 | COc1cc(C(=O)C=CN2CC=CC2)cc(OC)c1OC | 1.77
86 | NN=C(c1ccccc1)c1ccccc1 | 2.79
87 | CN(C)C(=S)Nc1ccccc1 | 1.04
88 | CNc1cccc2ccccc12 | 2.88
89 | O=C(O)c1cc(=O)c2ccccc2o1 | 1.63
90 | CCC(C)NC(=O)C(=Cc1ccccc1)Sc1ccccc1 (centres undefined) | 4.36
91 | COc1cc(S(C)=O)ccc1-c1cn2ccncc2n1 (centres undefined) | 1.11
92 | S=C=Nc1cccc(Br)c1 | 4.12
93 | FC(F)(F)CN(CC(F)(F)F)c1ccccc1 | 3.69
94 | O=S([O-])c1ccccc1.[Na+] | -3.54
95 | S=C(Nc1ccccc1)c1ccccc1 | 3.03
96 | CCCCC(=O)Nc1ccc(Cl)c(Cl)c1 | 4.17

Row | SMILES | logP
97 | CS(=O)(=O)F | 0.55
98 | O=S(Cc1ccccn1)c1nc2ccccc2[nH]1 (centres undefined) | 1.33
99 | CCCCC(=O)N(C)c1ccc(S(=O)(=O)N(C)C)cc1 | 1.63
100 | O=C(CN(C(=O)C(Cl)Cl)c1ccccc1)Nc1ccccc1 | 2.96
101 | Nc1nc(N)c2ncn(COCCO)c2n1 | -1.06
102 | CN/C(=N\C#N)NCCSCc1csc(N=C(N)N)n1 | 0.68
103 | C[n+]1c2cc(N)ccc2cc2ccc(N)cc21.[Cl-] | -1.78
104 | CCOC(=O)c1ccc(NC(=O)C(F)(F)F)cc1 | 2.25
105 | CC(=O)Nc1ccc(CN(C)N=Nc2ccc(C(=O)O)cc2)cc1 | 3.35
106 | N=c1ccn2c(n1)O[C@H]1[C@H](O)[C@@H](CO)O[C@H]12 | -2.37
107 | COC1OC(CO)C(O)C(NC(=O)N(C)N=O)C1O (centres undefined) | -0.82
108 | CSC(=O)Nc1ccc(Cl)c(Cl)c1 | 4.23
109 | O=C(Nc1ccccc1)c1ccc(C(=O)Nc2ccccc2)cc1 | 3.72
110 | CCN(CC)Cc1ccc(C(=O)Nc2ccccc2)cc1 | 3.49
111 | O=C1CN=C(c2ccc[nH]2)c2cc(Cl)ccc2N1 | 2.59
112 | CCOC(=O)CCC(=O)N(C)c1cccc(S(=O)(=O)N(C)C)c1 | 0.84
113 | CC(=O)N(CC(=O)Nc1ccccc1)c1ccccc1 | 2.01
114 | COC1OC(COC(C)=O)C(OC(C)=O)C(NC(=O)N(CCCl)N=O)C1OC(C)=O (centres undefined) | 0.67
115 | CC(C)Cn1c(=O)n(C)c(=O)c2[nH]cnc21 | 1.15
116 | CC(=O)NC1CCSC1=O (centres undefined) | -0.35
117 | CCC(C)N=C=S (centres undefined) | 2.81
118 | Cc1nnc(SCc2ccccc2)o1 | 1.74
119 | CC(=O)OC1CCCC(NC(=O)N(CCF)N=O)C1 (centres undefined) | 1.33
120 | COc1cccc(Cc2cnc(N)nc2N)c1OC | 1.62

Row | SMILES | logP
121 | CC(C)S(=O)(=O)n1c(N)nc2ccc(/C(=N/O)c3ccccc3)cc21 | 3.1
122 | OC(c1ccccc1)(c1ccccc1)c1ccccc1 | 3.68
123 | O=C1CC(C(=O)O)Oc2ccccc21 (centres undefined) | 1.26
124 | NC(=O)c1nc[nH]c1N=NN(CCO)Cc1ccccc1 | 0.99
125 | CCCCCCCCNC(N)=NNC(=O)Nc1ccc(Cl)cc1 | 4.35
126 | COc1cc(C=NO)ccc1OCCOC(=O)COc1ccccc1 | 2.1
127 | O=C(O)c1cc(=O)c2cc3c(cc2o1)CCCC3 | 3.4
128 | CC=CC(=O)Nc1ccc(Cl)c(Cl)c1 | 3.63
129 | CCN(CC)c1c(C)n(C)c(=O)n(-c2ccccc2)c1=O | 2.11
130 | C=CCn1c(C)c(N(C)C)c(=O)n(-c2ccccc2)c1=O | 1.44
131 | CC(=O)NC1=CC(=O)N(c2ccc(Cl)cc2)C1=O | 0.75
132 | CC(=O)Nc1ccccc1C#N | 0.57
133 | CC(C)OC(=O)c1ccccc1 | 3.18
134 | CCC1(c2ccccc2)NC(=O)NC1=O (centres undefined) | 1.53
135 | Cc1c2ccncc2cc2c1[nH]c1ccccc12 | 4.06
136 | CC(=O)Nc1ccc2oc(C)c(C)c(=O)c2c1 | 1.79
137 | COc1nnccc1N(C)C | 0.9
138 | O=C(Nc1ccc(Cl)c(Cl)c1)c1ccccc1 | 4.42
139 | NCC(=O)NCC(=O)NCC(=O)NCC(=O)NCC(=O)O | -3.31
140 | CCC(=O)OCC(=O)C1(OC(=O)CC)C(C)CC2C3CC(F)C4=CC(=O)C(Cl)=CC4(C)C3(F)C(O)CC21C (centres undefined) | 4.22
141 | CCOC(=O)C(=Cc1ccc(OC)c(OC)c1)C(=O)OCC | 2.89
142 | CCCC(=O)Nc1ccc(Cl)c(Cl)c1 | 3.77
143 | CC(C)CC(CC(C)C)OC(=O)c1ccc(NC(=O)N(C)C)cc1Cl | 5.15
144 | OCCOCCN1CCN(CCCN2c3ccccc3Sc3ccc(C(F)(F)F)cc32)CC1 | 4.49

Reference: the OPERA property sets (Mansouri et al. 2018)
